System: amyloid β production in transfected H4 (human neuroglioma) cells stably expressing APP constructs
Assay: In vitro cell-based assay of inhibitors of amyloid β production (ELISA)
Conditions: transfected H4 cells stably expressing APP; approximately 16 hours incubation; amyloid β in medium by ELISA; read-out: ACTIVITY (IC50, inhibition of amyloid β production)
Method in brief: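 Plate wt/variant APP cells; ≥6 h later swap to medium + compound (10-100 μM screen); incubate ~16 h; sample medium; Aβ ELISA with C-terminal capture / N-terminal detection Abs; quantify vs Aβ standard curve.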

COC(=O)[C@H](c1ccccc1)N(c1cc(F)ccc1F)S(=O)(=O)c1ccc(Cl)cc1 [Example 987, methyl (2S)-1-{[(4-chlorophenyl)sulfonyl]-2,5-difluoroanilino}(phenyl)ethanoate]
IC50: > 500 nM

— patent publication US6967196B1, “Sulfonamide compounds and uses thereof” (Bristol-Myers Squibb Company, priority 1999, dated 2005)
